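Five concentrations, 48 hours, 96-well plates. Abbreviation: GI50, concentration required for 50% inhibition of growth.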 Calls of active or inactive are those of the source. No stated cut-off is given here; in the data, active = GI50 up to about 1.1 µM and inactive = higher.
Assays:
Experiment in all cases: growth of human tumour cells (NCI), 48 h
LOX IMVI = system: LOX IMVI
NCI-H23 = system: NCI-H23
SK-MEL-28 = system: SK-MEL-28
CCRF-CEM = system: CCRF-CEM
TK-10 = system: TK-10
DLD-1 = system: DLD-1
HOP-62 = system: HOP-62
RXF 393 = system: RXF 393
A549 = system: A549
IGROV-1 = system: IGROV-1
SK-MEL-5 = system: SK-MEL-5
UO-31 = system: UO-31
UACC-62 = system: UACC-62
HCT-15 = system: HCT-15
XF498 = system: XF498
A498 = system: A498
SK-OV-3 = system: SK-OV-3
Malme-3M = system: Malme-3M
OVCAR-4 = system: OVCAR-4
KM12 = system: KM12
DMS-273 = system: DMS-273
SNB-75 = system: SNB-75
SNB-78 = system: SNB-78
786-0 = system: 786-0
HCT-116 = system: HCT-116
DMS-114 = system: DMS-114
SF-539 = system: SF-539
SK-MEL-2 = system: SK-MEL-2
K562 = system: K562
M19-MEL = system: M19-MEL
SNB-19 = system: SNB-19
SF-268 = system: SF-268
HCC 2998 = system: HCC 2998
NCI-H460 = system: NCI-H460
ACHN = system: ACHN
U-251 = system: U-251
HL-60 = system: HL-60
NCI-H226 = system: NCI-H226
OVCAR-5 = system: OVCAR-5
SW-620 = system: SW-620
OVCAR-8 = system: OVCAR-8
EKVX = system: EKVX
COLO 205 = system: COLO 205
RPMI-8226 = system: RPMI-8226
LXFL 529 = system: LXFL 529
UACC-257 = system: UACC-257
HOP-92 = system: HOP-92
KM-20L2 = system: KM-20L2
MOLT-4 = system: MOLT-4
HT-29 = system: HT-29
SN12C = system: SN12C
M14 = system: M14
OVCAR-3 = system: OVCAR-3
SF-295 = system: SF-295
NCI-H522 = system: NCI-H522

SMILES: Brc1cc2c(cc1Br)CN(c1ccccc1)C2
- GI50 (LOX IMVI): > 100 µM (inactive)
- GI50 (NCI-H23): > 100 µM (inactive)
- GI50 (SK-MEL-28): > 100 µM (inactive)
- GI50 (CCRF-CEM): > 100 µM (inactive)
- GI50 (TK-10): > 100 µM (inactive)
- GI50 (DLD-1): 68.2 µM (inactive)
- GI50 (HOP-62): > 100 µM (inactive)
- GI50 (RXF 393): 99.8 µM (inactive)
- GI50 (A549): > 100 µM (inactive)
- GI50 (IGROV-1): > 100 µM (inactive)
- GI50 (SK-MEL-5): > 100 µM (inactive)
- GI50 (UO-31): > 100 µM (inactive)
- GI50 (UACC-62): > 100 µM (inactive)
- GI50 (HCT-15): 53.8 µM
- GI50 (XF498): > 100 µM (inactive)
- GI50 (A498): > 100 µM (inactive)
- GI50 (SK-OV-3): > 100 µM (inactive)
- GI50 (Malme-3M): > 100 µM (inactive)
- GI50 (OVCAR-4): > 100 µM (inactive)
- GI50 (KM12): > 100 µM (inactive)
- GI50 (DMS-273): > 100 µM (inactive)
- GI50 (SNB-75): > 100 µM (inactive)
- GI50 (SNB-78): > 100 µM (inactive)
- GI50 (786-0): > 100 µM (inactive)
- GI50 (HCT-116): > 100 µM (inactive)
- GI50 (DMS-114): > 100 µM (inactive)
- GI50 (SF-539): > 100 µM (inactive)
- GI50 (SK-MEL-2): > 100 µM (inactive)
- GI50 (K562): 80 µM (inactive)
- GI50 (M19-MEL): > 100 µM (inactive)
- GI50 (SNB-19): > 100 µM (inactive)
- GI50 (SF-268): > 100 µM (inactive)
- GI50 (HCC 2998): > 100 µM (inactive)
- GI50 (NCI-H460): > 100 µM (inactive)
- GI50 (ACHN): > 100 µM (inactive)
- GI50 (U-251): > 100 µM (inactive)
- GI50 (HL-60): > 100 µM (inactive)
- GI50 (NCI-H226): > 100 µM (inactive)
- GI50 (OVCAR-5): > 100 µM (inactive)
- GI50 (SW-620): > 100 µM (inactive)
- GI50 (OVCAR-8): > 100 µM (inactive)
- GI50 (EKVX): > 100 µM (inactive)
- GI50 (COLO 205): > 100 µM (inactive)
- GI50 (RPMI-8226): > 100 µM (inactive)
- GI50 (LXFL 529): > 100 µM (inactive)
- GI50 (UACC-257): > 100 µM (inactive)
- GI50 (HOP-92): 41.5 µM (inactive)
- GI50 (KM-20L2): > 100 µM (inactive)
- GI50 (MOLT-4): > 100 µM (inactive)
- GI50 (HT-29): > 100 µM (inactive)
- GI50 (SN12C): > 100 µM (inactive)
- GI50 (M14): > 100 µM (inactive)
- GI50 (OVCAR-3): > 100 µM (inactive)
- GI50 (SF-295): > 100 µM (inactive)

SMILES: CN(C)c1nc(N(C)C)nc(N(C)CN(C)c2ccc(Cl)cc2)n1
- GI50 (LOX IMVI): > 100 µM (inactive)
- GI50 (NCI-H23): > 100 µM (inactive)
- GI50 (SK-MEL-28): > 100 µM (inactive)
- GI50 (CCRF-CEM): > 100 µM (inactive)
- GI50 (TK-10): > 100 µM (inactive)
- GI50 (DLD-1): > 100 µM (inactive)
- GI50 (RXF 393): > 100 µM (inactive)
- GI50 (A549): > 100 µM (inactive)
- GI50 (IGROV-1): > 100 µM (inactive)
- GI50 (SK-MEL-5): > 100 µM (inactive)
- GI50 (UO-31): > 100 µM (inactive)
- GI50 (UACC-62): > 100 µM (inactive)
- GI50 (HCT-15): > 100 µM
- GI50 (XF498): > 100 µM (inactive)
- GI50 (SK-OV-3): > 100 µM (inactive)
- GI50 (Malme-3M): > 100 µM (inactive)
- GI50 (OVCAR-4): > 100 µM (inactive)
- GI50 (NCI-H522): > 100 µM (inactive)
- GI50 (KM12): > 100 µM (inactive)
- GI50 (DMS-273): > 100 µM (inactive)
- GI50 (SNB-75): > 100 µM (inactive)
- GI50 (SNB-78): > 100 µM (inactive)
- GI50 (HCT-116): > 100 µM (inactive)
- GI50 (DMS-114): > 100 µM (inactive)
- GI50 (SF-539): > 100 µM (inactive)
- GI50 (SK-MEL-2): > 100 µM (inactive)
- GI50 (K562): > 100 µM (inactive)
- GI50 (M19-MEL): > 100 µM (inactive)
- GI50 (SNB-19): > 100 µM (inactive)
- GI50 (SF-268): > 100 µM (inactive)
- GI50 (NCI-H460): > 100 µM (inactive)
- GI50 (ACHN): > 100 µM (inactive)
- GI50 (U-251): > 100 µM (inactive)
- GI50 (HL-60): 1.72 µM (inactive)
- GI50 (NCI-H226): > 100 µM (inactive)
- GI50 (SW-620): > 100 µM (inactive)
- GI50 (OVCAR-8): > 100 µM (inactive)
- GI50 (LXFL 529): > 100 µM (inactive)
- GI50 (UACC-257): > 100 µM (inactive)
- GI50 (MOLT-4): > 100 µM (inactive)
- GI50 (HT-29): > 100 µM (inactive)
- GI50 (SN12C): > 100 µM (inactive)
- GI50 (OVCAR-3): 39 µM (inactive)
- GI50 (SF-295): > 100 µM (inactive)

Source: ChEMBL document CHEMBL1201862, “PubChem BioAssay data set” (2004)
